The values below come from patent US20220195389A1, “METHODS OF IMPROVING THE LONGEVITY OF IMMUNE CELLS” (University of Houston System, priority 2019, published 2022).

This data set relates to T cells. The data set is described as follows: T-cell viability after incubation with compound C. The class given is cell-based, human. As to conditions: 10 μM dorsomorphin, 6-24 hours. As for the experimental part:
T cells were incubated with 10 μM dorsomorphin (Sigma Aldrich) for a period of 6-24 hours. The T cells were subsequently used for either motility assays or functional profiling using TIMING assays.

For the molecule `c1cc(-c2cnn3cc(-c4ccc(OCCN5CCCCC5)cc4)cnc23)ccn1` [CC, dorsomorphin], the “impact on T-cell viability” value is “did not have an impact”.
